Data taken from paper PMC2680211 (Bioorganic & medicinal chemistry, 2008).

Molecular target: hKOPR (Homo sapiens, UniProt P41145)
Format: biochemical

hKOPR, sequence (P41145 whole entry): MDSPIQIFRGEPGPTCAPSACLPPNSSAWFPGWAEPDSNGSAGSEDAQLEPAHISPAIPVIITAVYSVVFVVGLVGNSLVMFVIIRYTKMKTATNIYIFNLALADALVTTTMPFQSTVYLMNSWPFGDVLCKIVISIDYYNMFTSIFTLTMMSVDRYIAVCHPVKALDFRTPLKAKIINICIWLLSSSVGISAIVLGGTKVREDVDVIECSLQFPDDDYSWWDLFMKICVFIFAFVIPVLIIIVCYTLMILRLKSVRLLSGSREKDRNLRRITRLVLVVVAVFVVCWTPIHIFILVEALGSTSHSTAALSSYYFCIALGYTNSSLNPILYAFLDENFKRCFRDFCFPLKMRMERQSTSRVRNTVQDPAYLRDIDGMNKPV

| Compound | KOPR agonism in the [35S]GTPγS functional assay (in words) | KOPR antagonism: effect on U50,488-induced [35S]GTPγS binding | reduction of [35S]GTPγS binding induced by U50,488 |
| --- | --- | --- | --- |
| COC(=O)[C@@H]1C[C@H](OC(C)=O)C(=O)[C@H]2[C@@]1(C)CC[C@H]1C(=O)O[C@H](COC(C)=O)C[C@]21C [Compound 11] | weak KOPR agonist |  |  |
| COC(=O)[C@@H]1C[C@H](OC(C)=O)C(=O)[C@H]2[C@@]1(C)CC[C@H]1C(=O)O[C@@H](c3ccoc3)C[C@]21C [Compound 6, 12-epi-Salvinorin A] | partial agonist effects | partially blocked the effect of U50,488 | significantly reduced |
| COC(=O)[C@@H]1C[C@H](OC(C)=O)C(=O)[C@H]2[C@@]1(C)CC[C@H]1C(=O)O[C@H](C(=O)O)C[C@]21C [Compound 7] | weak agonist |  |  |
| COC(=O)[C@@H]1C[C@H](OC(C)=O)C(=O)[C@H]2[C@@]1(C)CC[C@H]1C(=O)O[C@H](c3ccoc3Br)C[C@]21C [Compound 2, 16-bromosalvinorin A] | highly potent KOPR agonist |  |  |
